Measured values published in PMC10318897, “The structure of Leptospira interrogans GAPDH sheds light into an immunoevasion factor that can target the anaphylatoxin C5a of innate immunity” (Frontiers in Immunology, 2023).

Legend:
LiGAPDH [1] = target: T1, LiGAPDH (Leptospira interrogans, UniProt Q72QM3); experiment: NADH formation at […] nm, nonlinear fit; type: biochemical; settings: substrate inhibition constant, 2 mM NAD+, 40 mM Tris-HCl pH 8.5, 2 mM EDTA, 25 °C
T1 construct: gene gapA; full-length, N-terminal His6 tag and TEV site (pETM-11), expressed in E. coli Rosetta(DE3); homotetramer; 36648 Da subunit

LiGAPDH [2] = target: T1, LiGAPDH; experiment: NADH formation at […] nm, initial rates, nonlinear fit; type: biochemical
LiGAPDH [3] = target: T1, LiGAPDH; experiment: X-ray crystal structure, […] Å; type: binding; settings: active site, N-terminal Rossmann domain, all eight subunits

T1 sequence (Q72QM3 entry or part of it): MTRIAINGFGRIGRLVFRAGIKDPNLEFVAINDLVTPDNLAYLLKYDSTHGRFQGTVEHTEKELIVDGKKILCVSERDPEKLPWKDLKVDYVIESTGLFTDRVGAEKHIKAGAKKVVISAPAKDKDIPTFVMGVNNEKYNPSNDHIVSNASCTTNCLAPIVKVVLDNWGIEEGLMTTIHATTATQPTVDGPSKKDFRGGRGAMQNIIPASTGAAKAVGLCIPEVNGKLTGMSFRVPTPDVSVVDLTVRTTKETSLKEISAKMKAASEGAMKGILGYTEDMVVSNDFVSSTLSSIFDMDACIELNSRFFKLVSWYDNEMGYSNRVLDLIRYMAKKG

SMILES: O=P(O)(O)O [Pi]
- KSS (LiGAPDH [1]; 2 mM G3P): 10 ± 1 mM

SMILES: COc1cc(/C=C/C(=O)CC(=O)/C=C/c2ccc(O)c(OC)c2)ccc1O [curcumin]
- Ki (LiGAPDH [2]): 59 ± 3 µM

SMILES: CCCCCCCCCCCCCCCc1cccc(O)c1C(=O)O [anacardic acid]
- Ki (LiGAPDH [2]): 41 ± 2 µM

SMILES: NC(=O)c1ccc[n+]([C@@H]2O[C@H](COP(=O)(O)OP(=O)(O)OC[C@H]3O[C@@H](n4cnc5c(N)ncnc54)[C@H](O)[C@@H]3O)[C@@H](O)[C@H]2O)c1 [NAD^+]
- X-ray crystal structure, 2.37 Å (LiGAPDH [3]): The crystal structure corresponds to the holoenzyme with an NAD^+ molecule tightly bound into the active

SMILES: O=C[C@H](O)COP(=O)(O)O [G3P]
- KSS (LiGAPDH [1]; 5 mM phosphate): 2.0 ± 0.3 mM
